Experiment: excess molar enthalpy (molar enthalpy of mixing); xn = mol fraction of the nth substance listed
Settings: 100 kPa

CCCCOCCO + CCOC(=O)OCC
298.15 K
Settings | excess molar enthalpy [kcal/mol]
x2 = 0.043 | 0.0402
x2 = 0.0431 | 0.038
x2 = 0.0824 | 0.076
x2 = 0.0827 | 0.0707
x2 = 0.1188 | 0.107
x2 = 0.1191 | 0.098
x2 = 0.2123 | 0.177
x2 = 0.2129 | 0.163
x2 = 0.265 | 0.191
x2 = 0.3503 | 0.254
x2 = 0.351 | 0.229
x2 = 0.4181 | 0.278
x2 = 0.4189 | 0.25
x2 = 0.5196 | 0.268
x2 = 0.6138 | 0.267
x2 = 0.618 | 0.295
x2 = 0.6832 | 0.281
x2 = 0.7639 | 0.245
x2 = 0.7644 | 0.227
x2 = 0.8118 | 0.218
x2 = 0.8123 | 0.202
x2 = 0.8661 | 0.173
x2 = 0.8665 | 0.159
x2 = 0.8961 | 0.142
x2 = 0.8964 | 0.134
x2 = 0.9228 | 0.0593
x2 = 0.9283 | 0.106
x2 = 0.9285 | 0.0994

CCOCCO + CCOC(=O)OCC
Settings | excess molar enthalpy [kcal/mol]
298.15 K, x2 = 0.0322 | 0.0225
298.15 K, x2 = 0.0624 | 0.0433
298.15 K, x2 = 0.1175 | 0.0801
298.15 K, x2 = 0.1666 | 0.11
298.15 K, x2 = 0.2104 | 0.136
298.15 K, x2 = 0.2855 | 0.171
298.15 K, x2 = 0.4442 | 0.223
298.15 K, x2 = 0.5454 | 0.234
298.15 K, x2 = 0.7057 | 0.221
298.15 K, x2 = 0.8275 | 0.17
298.15 K, x2 = 0.8648 | 0.145
298.15 K, x2 = 0.9056 | 0.111
313.15 K, x2 = 0.0321 | 0.028
313.15 K, x2 = 0.0623 | 0.0531
313.15 K, x2 = 0.0906 | 0.0753
313.15 K, x2 = 0.1173 | 0.0951
313.15 K, x2 = 0.2099 | 0.158
313.15 K, x2 = 0.285 | 0.199
313.15 K, x2 = 0.3469 | 0.226
313.15 K, x2 = 0.4436 | 0.256
313.15 K, x2 = 0.5447 | 0.27
313.15 K, x2 = 0.6146 | 0.271
313.15 K, x2 = 0.7052 | 0.254
313.15 K, x2 = 0.8271 | 0.193
313.15 K, x2 = 0.8645 | 0.165
313.15 K, x2 = 0.9054 | 0.124
313.15 K, x2 = 0.9503 | 0.0717

COCCOCCO + CCOC(=O)OCC
Settings | excess molar enthalpy [kcal/mol]
298.15 K, x2 = 0.0388 | 0.0174
298.15 K, x2 = 0.0748 | 0.0337
298.15 K, x2 = 0.1392 | 0.06
298.15 K, x2 = 0.1952 | 0.0827
298.15 K, x2 = 0.2444 | 0.103
298.15 K, x2 = 0.3267 | 0.126
298.15 K, x2 = 0.3927 | 0.146
298.15 K, x2 = 0.66 | 0.175
298.15 K, x2 = 0.7443 | 0.165
298.15 K, x2 = 0.7951 | 0.151
298.15 K, x2 = 0.8534 | 0.125
298.15 K, x2 = 0.8859 | 0.109
298.15 K, x2 = 0.9209 | 0.0827
298.15 K, x2 = 0.9588 | 0.0471
313.15 K, x2 = 0.0387 | 0.0201
313.15 K, x2 = 0.1077 | 0.0576
313.15 K, x2 = 0.1386 | 0.0739
313.15 K, x2 = 0.1945 | 0.101
313.15 K, x2 = 0.2436 | 0.125
313.15 K, x2 = 0.3257 | 0.157
313.15 K, x2 = 0.3916 | 0.179
313.15 K, x2 = 0.4914 | 0.202
313.15 K, x2 = 0.6589 | 0.215
313.15 K, x2 = 0.7435 | 0.201
313.15 K, x2 = 0.7944 | 0.185
313.15 K, x2 = 0.8529 | 0.156
313.15 K, x2 = 0.8854 | 0.133
313.15 K, x2 = 0.9587 | 0.0583

CCOCCOCCO + CCOC(=O)OCC
Settings | excess molar enthalpy [kcal/mol]
298.15 K, x2 = 0.1227 | 0.0459
298.15 K, x2 = 0.1571 | 0.0614
298.15 K, x2 = 0.2185 | 0.0837
298.15 K, x2 = 0.2716 | 0.102
298.15 K, x2 = 0.3587 | 0.128
298.15 K, x2 = 0.4271 | 0.146
298.15 K, x2 = 0.528 | 0.163
298.15 K, x2 = 0.6911 | 0.168
298.15 K, x2 = 0.8173 | 0.141
298.15 K, x2 = 0.8995 | 0.0985
298.15 K, x2 = 0.9307 | 0.0748
298.15 K, x2 = 0.9641 | 0.0425
313.15 K, x2 = 0.0443 | 0.0198
313.15 K, x2 = 0.1222 | 0.0574
313.15 K, x2 = 0.1566 | 0.0767
313.15 K, x2 = 0.2313 | 0.109
313.15 K, x2 = 0.2708 | 0.126
313.15 K, x2 = 0.3578 | 0.157
313.15 K, x2 = 0.4261 | 0.175
313.15 K, x2 = 0.527 | 0.197
313.15 K, x2 = 0.6257 | 0.202
313.15 K, x2 = 0.7697 | 0.184
313.15 K, x2 = 0.8167 | 0.167
313.15 K, x2 = 0.8699 | 0.139
313.15 K, x2 = 0.8991 | 0.117
313.15 K, x2 = 0.9304 | 0.0872

CCCCOCCOCCO + CCOC(=O)OCC
Settings | excess molar enthalpy [kcal/mol]
298.15 K, x2 = 0.0553 | 0.0217
298.15 K, x2 = 0.1047 | 0.0433
298.15 K, x2 = 0.1493 | 0.06
298.15 K, x2 = 0.1896 | 0.0793
298.15 K, x2 = 0.2598 | 0.106
298.15 K, x2 = 0.3188 | 0.125
298.15 K, x2 = 0.4125 | 0.151
298.15 K, x2 = 0.4834 | 0.165
298.15 K, x2 = 0.584 | 0.176
298.15 K, x2 = 0.6781 | 0.175
298.15 K, x2 = 0.8081 | 0.15
298.15 K, x2 = 0.8488 | 0.131
298.15 K, x2 = 0.8939 | 0.104
298.15 K, x2 = 0.9182 | 0.0884
298.15 K, x2 = 0.944 | 0.0641
298.15 K, x2 = 0.9712 | 0.0356
313.15 K, x2 = 0.1043 | 0.0521
313.15 K, x2 = 0.1488 | 0.0743
313.15 K, x2 = 0.3179 | 0.149
313.15 K, x2 = 0.4114 | 0.175
313.15 K, x2 = 0.4823 | 0.193
313.15 K, x2 = 0.583 | 0.205
313.15 K, x2 = 0.6772 | 0.204
313.15 K, x2 = 0.7366 | 0.193
313.15 K, x2 = 0.8075 | 0.171
313.15 K, x2 = 0.8935 | 0.12
313.15 K, x2 = 0.9179 | 0.0973
313.15 K, x2 = 0.9438 | 0.0715
313.15 K, x2 = 0.9711 | 0.0392

COCCO + CCOC(=O)OCC
298.15 K
Settings | excess molar enthalpy [kcal/mol]
x2 = 0.0263 | 0.0225
x2 = 0.0264 | 0.0191
x2 = 0.0512 | 0.0437
x2 = 0.0514 | 0.0363
x2 = 0.075 | 0.0607
x2 = 0.0975 | 0.0798
x2 = 0.0978 | 0.0672
x2 = 0.1395 | 0.112
x2 = 0.1398 | 0.0973
x2 = 0.1777 | 0.138
x2 = 0.1781 | 0.119
x2 = 0.2454 | 0.153
x2 = 0.3017 | 0.208
x2 = 0.3023 | 0.178
x2 = 0.3933 | 0.246
x2 = 0.3941 | 0.211
x2 = 0.4931 | 0.268
x2 = 0.4939 | 0.23
x2 = 0.5646 | 0.274
x2 = 0.5653 | 0.237
x2 = 0.6605 | 0.265
x2 = 0.6611 | 0.23
x2 = 0.7217 | 0.247
x2 = 0.7223 | 0.218
x2 = 0.796 | 0.188
x2 = 0.8384 | 0.182
x2 = 0.8388 | 0.164
x2 = 0.8861 | 0.142
x2 = 0.8864 | 0.129
x2 = 0.9396 | 0.0841
x2 = 0.9398 | 0.0767
